Laboratory results: US20230416232A1, “PYRIMIDINE COMPOUNDS, COMPOSITIONS, AND MEDICINAL APPLICATIONS THEREOF” (Blueprint Medicines Corporation, priority 2020, published 2023)

Columns and labels:
Assay type in all cases: cell-based
A431 cells = assay: Cellular proliferation (Alamar Blue) assay, A431 cells; conditions: Homo sapiens, A-431, 72 h, A431 cells; 72 hr; Alamar Blue; read-out: A431 IC50
Protocol: (§1) • 1. Seed cells at 5000 for A431 and 15,000 cells for Ba/F3 in 100 μL/well in complete media (for A431: DMEM with 10% FBS and for Ba/F3 cells: RPMI with 10% FBS) in 96-well tissue culture plate. Leave outer wells without cells for background measurements. Incubate at 37 degree Celsius in 5% CO2 humidified incubator for 16-18 hours. • 2. Add 0.025 ml of 5X concentration compound dilution or DMSO control. Final compound concentration range is 10-0.0005 μM prepared in 3-fold serial dilutions. Incubate for 72 hr at 37 degree Celsius in 5% CO2 humidified incubator. • 3. Add 0.0125 ml Alamar Blue™ reagent to each well with multi-channel pipette and tap gently on each side of the plate to mix. Incubate for 3 hours at 37 degree Celsius in 5% CO2 humidified incubator. • 4. […] Data analysis was performed using XLfit 5.5.0.5.

[1] = molecular target: HER2 (A775_G776insYVMA) expressing Ba/F3 stable cell line (Homo sapiens, UniProt P04626, DUP772-775, cells depend on it); assay: Cellular proliferation (Alamar Blue) assay, HER2 (A775_G776insYVMA) Ba/F3; conditions: HER2 (A775_G776insYVMA) Ba/F3 cells; 72 hr; Alamar Blue; read-out: YVMA IC50
Protocol: (§2) Cell line details: • 1. EGFR(D770_N771insSVD) expressing Ba/F3 stable cell line • 2. EGFR (A767_dupASV) expressing Ba/F3 stable cell line • 3. A431 cells • 4. EGFR (H773insNPH) expressing Ba/F3 stable cell line • 5. HER2 (A775_G776insYVMA) expressing Ba/F3 stable cell line
as §1

[2] = molecular target: EGFR(D770_N771insSVD) expressing Ba/F3 stable cell line (Homo sapiens, UniProt P00533, DUP768-770, cells depend on it); assay: Cellular proliferation (Alamar Blue) assay, EGFR(D770_N771insSVD) Ba/F3; conditions: 72 hr, read-out: D770 IC50
Protocol: as §2, §1

[3] = molecular target: EGFR (A767_dupASV) expressing Ba/F3 stable cell line (Homo sapiens, UniProt P00533, DUP767-769, cells depend on it); assay: Cellular proliferation (Alamar Blue) assay, EGFR (A767_dupASV) Ba/F3; conditions: 72 hr, read-out: A767 IC50
Protocol: as §2, §1

HER2 (A775_G776insYVMA) expressing Ba/F3 stable cell line, sequence (P04626 with tags, fused parts or gaps DUP772-775): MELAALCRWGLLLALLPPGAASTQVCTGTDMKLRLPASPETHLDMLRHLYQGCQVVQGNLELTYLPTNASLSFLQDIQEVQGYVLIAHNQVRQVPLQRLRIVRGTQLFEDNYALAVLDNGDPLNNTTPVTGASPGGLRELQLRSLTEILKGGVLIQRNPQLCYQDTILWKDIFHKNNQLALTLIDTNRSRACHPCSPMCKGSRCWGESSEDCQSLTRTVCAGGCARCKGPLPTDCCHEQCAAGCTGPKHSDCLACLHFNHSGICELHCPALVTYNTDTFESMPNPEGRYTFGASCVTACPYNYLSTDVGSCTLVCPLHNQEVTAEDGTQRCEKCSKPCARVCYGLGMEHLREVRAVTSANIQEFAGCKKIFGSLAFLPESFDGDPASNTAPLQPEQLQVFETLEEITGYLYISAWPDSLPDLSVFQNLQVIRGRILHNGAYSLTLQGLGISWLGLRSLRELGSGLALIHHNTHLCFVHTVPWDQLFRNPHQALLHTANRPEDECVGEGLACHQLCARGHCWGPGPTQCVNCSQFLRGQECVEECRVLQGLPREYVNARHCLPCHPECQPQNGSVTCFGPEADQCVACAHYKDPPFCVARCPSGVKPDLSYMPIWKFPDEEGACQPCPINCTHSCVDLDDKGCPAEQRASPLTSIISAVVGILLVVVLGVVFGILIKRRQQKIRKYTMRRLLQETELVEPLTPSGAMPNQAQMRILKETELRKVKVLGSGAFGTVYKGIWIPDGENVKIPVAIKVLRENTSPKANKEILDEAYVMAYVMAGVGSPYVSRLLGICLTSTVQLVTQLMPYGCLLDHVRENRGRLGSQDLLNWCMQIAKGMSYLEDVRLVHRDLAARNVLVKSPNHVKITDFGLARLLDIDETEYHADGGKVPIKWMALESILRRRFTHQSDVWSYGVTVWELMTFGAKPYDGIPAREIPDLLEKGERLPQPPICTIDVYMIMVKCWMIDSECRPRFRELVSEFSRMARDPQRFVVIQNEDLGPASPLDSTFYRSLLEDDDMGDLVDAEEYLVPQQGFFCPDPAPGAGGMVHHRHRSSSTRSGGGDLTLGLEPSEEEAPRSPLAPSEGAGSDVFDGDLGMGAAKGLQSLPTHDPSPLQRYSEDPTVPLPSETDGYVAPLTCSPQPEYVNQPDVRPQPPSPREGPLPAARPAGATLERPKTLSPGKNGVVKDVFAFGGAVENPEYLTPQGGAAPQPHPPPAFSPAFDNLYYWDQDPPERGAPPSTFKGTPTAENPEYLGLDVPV
EGFR (A767_dupASV) expressing Ba/F3 stable cell line, sequence (P00533 with tags, fused parts or gaps DUP767-769): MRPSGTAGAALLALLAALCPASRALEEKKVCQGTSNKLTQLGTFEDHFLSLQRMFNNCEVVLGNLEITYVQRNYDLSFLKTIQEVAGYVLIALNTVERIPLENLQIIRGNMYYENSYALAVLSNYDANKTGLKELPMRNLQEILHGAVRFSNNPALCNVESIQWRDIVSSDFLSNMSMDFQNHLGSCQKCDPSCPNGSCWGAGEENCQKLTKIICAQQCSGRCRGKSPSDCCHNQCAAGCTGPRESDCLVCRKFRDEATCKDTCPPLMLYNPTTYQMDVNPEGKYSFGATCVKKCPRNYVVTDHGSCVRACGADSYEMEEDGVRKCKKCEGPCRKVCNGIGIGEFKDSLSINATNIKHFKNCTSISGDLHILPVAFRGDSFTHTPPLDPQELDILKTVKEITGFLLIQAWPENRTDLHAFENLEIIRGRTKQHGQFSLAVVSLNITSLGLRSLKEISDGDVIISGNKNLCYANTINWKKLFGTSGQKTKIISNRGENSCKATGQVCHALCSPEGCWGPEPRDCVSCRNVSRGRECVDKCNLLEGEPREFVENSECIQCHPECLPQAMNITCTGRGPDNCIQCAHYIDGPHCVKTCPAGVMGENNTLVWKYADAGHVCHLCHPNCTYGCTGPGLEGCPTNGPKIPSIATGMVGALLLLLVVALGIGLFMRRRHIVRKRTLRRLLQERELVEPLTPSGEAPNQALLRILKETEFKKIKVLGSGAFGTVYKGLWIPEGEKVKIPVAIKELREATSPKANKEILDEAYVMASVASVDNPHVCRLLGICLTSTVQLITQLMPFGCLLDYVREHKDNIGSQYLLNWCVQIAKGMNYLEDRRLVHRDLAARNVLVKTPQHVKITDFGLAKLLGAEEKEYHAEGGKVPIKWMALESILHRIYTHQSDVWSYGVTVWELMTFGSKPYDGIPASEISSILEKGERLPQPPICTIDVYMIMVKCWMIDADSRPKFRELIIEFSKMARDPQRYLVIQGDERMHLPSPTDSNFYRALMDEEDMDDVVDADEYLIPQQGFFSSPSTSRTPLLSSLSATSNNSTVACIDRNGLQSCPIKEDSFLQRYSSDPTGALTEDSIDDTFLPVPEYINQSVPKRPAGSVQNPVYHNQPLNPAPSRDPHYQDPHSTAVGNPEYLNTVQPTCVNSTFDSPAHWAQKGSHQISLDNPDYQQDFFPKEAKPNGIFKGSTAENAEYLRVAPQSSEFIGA
EGFR(D770_N771insSVD) expressing Ba/F3 stable cell line, sequence (P00533 with tags, fused parts or gaps DUP768-770): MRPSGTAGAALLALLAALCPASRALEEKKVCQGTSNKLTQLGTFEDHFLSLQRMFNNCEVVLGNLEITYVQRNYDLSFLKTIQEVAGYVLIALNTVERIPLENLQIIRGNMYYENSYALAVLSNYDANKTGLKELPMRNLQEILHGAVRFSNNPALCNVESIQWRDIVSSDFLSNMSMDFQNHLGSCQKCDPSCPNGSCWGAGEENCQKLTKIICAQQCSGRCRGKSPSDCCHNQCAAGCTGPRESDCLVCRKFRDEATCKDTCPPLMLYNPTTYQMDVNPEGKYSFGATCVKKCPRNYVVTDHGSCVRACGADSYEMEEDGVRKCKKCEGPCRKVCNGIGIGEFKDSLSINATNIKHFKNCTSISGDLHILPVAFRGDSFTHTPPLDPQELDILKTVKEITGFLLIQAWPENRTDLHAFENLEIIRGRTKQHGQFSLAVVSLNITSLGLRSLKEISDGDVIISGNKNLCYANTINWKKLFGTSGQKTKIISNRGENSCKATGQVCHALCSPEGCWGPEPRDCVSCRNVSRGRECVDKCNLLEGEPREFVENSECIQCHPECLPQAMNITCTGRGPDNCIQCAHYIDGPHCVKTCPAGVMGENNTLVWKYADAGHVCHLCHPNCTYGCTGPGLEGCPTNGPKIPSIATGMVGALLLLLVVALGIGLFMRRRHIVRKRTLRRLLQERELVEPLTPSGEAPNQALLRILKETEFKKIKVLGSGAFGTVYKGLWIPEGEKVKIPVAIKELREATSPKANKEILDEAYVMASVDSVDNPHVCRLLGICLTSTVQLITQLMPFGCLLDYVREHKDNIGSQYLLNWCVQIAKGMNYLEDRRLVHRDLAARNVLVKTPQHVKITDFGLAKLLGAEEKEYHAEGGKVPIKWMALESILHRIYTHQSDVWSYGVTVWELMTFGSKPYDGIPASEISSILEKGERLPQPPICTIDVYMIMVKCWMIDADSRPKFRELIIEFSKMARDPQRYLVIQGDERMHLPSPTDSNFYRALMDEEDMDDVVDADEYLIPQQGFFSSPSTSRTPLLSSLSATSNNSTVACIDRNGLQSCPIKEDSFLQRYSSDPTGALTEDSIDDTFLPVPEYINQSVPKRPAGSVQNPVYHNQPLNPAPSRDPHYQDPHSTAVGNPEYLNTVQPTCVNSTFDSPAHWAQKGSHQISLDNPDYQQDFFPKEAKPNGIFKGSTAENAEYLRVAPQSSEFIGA

Compound	IC50 (A431 cells) [µM]	GI50 [1] [µM]	GI50 [2] [µM]	GI50 [3] [µM]
C=CC(=O)Nc1ccc(F)c(Nc2nc(Nc3cnn(CCOC)c3)ncc2-c2ccc(F)c(Cl)c2)c1 [Compound 100, N-(3-((5-(3-chloro-4-fluorophenyl)-2-((1-(2-methoxyethyl)-1H-pyrazol-4-yl)amino)pyrimidin-4-yl)amino)-4-fluorophenyl)acrylamide]	1.2	0.86	0.274	0.301
C=CC(=O)Nc1cc(F)cc(Nc2nc(Nc3cnn(C)c3)ncc2-c2cc(F)c(C(F)(F)F)c(F)c2)c1 [Compound 164, N-(3-((5-(3,5-difluoro-4-(trifluoromethyl)phenyl)-2-((1-methyl-1H-pyrazol-4-yl)amino)pyrimidin-4-yl)amino)-5-fluorophenyl)acrylamide]	0.103	0.157	0.022	0.018
CN(C)C/C=C/C(=O)Nc1ccc(F)c(Nc2nc(Nc3cnn(C)c3)ncc2-c2cc(F)cc(F)c2)c1 [Compound 117, (E)-N-(3-((5-(3,5-difluorophenyl)-2-((1-methyl-1H-pyrazol-4-yl)amino)pyrimidin-4-yl)amino)-4-fluorophenyl)-4-(dimethylamino)but-2-enamide]	0.668	0.141	0.135	0.328
C=CC(=O)Nc1ccc(F)c(Nc2nc(Nc3cnn(C)c3)ncc2-c2cc(F)ccc2OC)c1 [Compound 9, N-(4-fluoro-3-((5-(5-fluoro-2-methoxyphenyl)-2-((1-methyl-1H-pyrazol-4-yl)amino)pyrimidin-4-yl)amino)phenyl)acrylamide]	> 10	0.838	0.93	0.721
C=CC(=O)Nc1ccc(F)c(Nc2nc(Nc3cn(C)nc3Cl)ncc2-c2cc(F)cc(C(F)F)c2)c1 [Compound 108, N-(3-((2-((3-chloro-1-methyl-1H-pyrazol-4-yl)amino)-5-(3-(difluoromethyl)-5-fluorophenyl)pyrimidin-4-yl)amino)-4-fluorophenyl)acrylamide]	0.023	0.243	0.039	0.096
C=CC(=O)Nc1cc(Cl)cc(Nc2nc(Nc3cnn(C)c3)ncc2-c2ccc(Br)c(F)c2)c1 [Compound 159, N-(3-((5-(4-bromo-3-fluorophenyl)-2-((1-methyl-1H-pyrazol-4-yl)amino)pyrimidin-4-yl)amino)-5-chlorophenyl)acrylamide]	0.023	0.125	0.024	0.029
C=CC(=O)Nc1cccc(Nc2nc(Nc3cnn(C)c3)ncc2-c2ccc(Br)c(F)c2)c1 [Compound 115, N-(3-((5-(4-bromo-3-fluorophenyl)-2-((1-methyl-1H-pyrazol-4-yl)amino)pyrimidin-4-yl)amino)phenyl)acrylamide]	0.011	0.086	0.032	0.036
C=CC(=O)Nc1ccc(F)c(Nc2nc(Nc3cnn(C)c3)ncc2-c2cnc(F)c(F)c2)c1 [Compound 29, N-(3-((5-(5,6-difluoropyridin-3-yl)-2-((1-methyl-1H-pyrazol-4-yl)amino)pyrimidin-4-yl)amino)-4-fluorophenyl)acrylamide]	0.02	0.021	0.008	0.007
C=CC(=O)Nc1ccc(F)c(Nc2nc(Nc3cnn(C)c3)ncc2-c2ccc(F)c(OC)c2)c1 [Compound 4, N-(4-fluoro-3-((5-(4-fluoro-3-methoxyphenyl)-2-((1-methyl-1H-pyrazol-4-yl)amino)pyrimidin-4-yl)amino)phenyl)acrylamide]	> 10	0.262	0.295	0.293
[2H]c1c(F)cc(-c2cnc(Nc3cnn(C)c3)nc2Nc2cc(NC(=O)C=C)ccc2F)cc1F [Compound 157, N-[3-({5-[3,5-difluoro(4-^2H)phenyl]-2-[(1-methyl-1H-pyrazol-4-yl)amino]pyrimidin-4-yl}amino)-4-fluorophenyl] prop-2-enamide]	0.023	0.151	0.016	0.035
C=CC(=O)Nc1cc(F)cc(Nc2nc(Nc3cnn(C)c3)ncc2-c2ccc(Br)c(F)c2)c1 [Compound 97, N-(3-((5-(4-bromo-3-fluorophenyl)-2-((1-methyl-1H-pyrazol-4-yl)amino)pyrimidin-4-yl)amino)-5-fluorophenyl)acrylamide]	0.012	0.062	0.013	0.024
C=CC(=O)Nc1ccc(F)c(Nc2nc(Nc3cnn(C)c3)ncc2-c2cc(F)cc(OC(F)(F)F)c2)c1 [Compound 172, N-(4-fluoro-3-((5-(3-fluoro-5-(trifluoromethoxy)phenyl)-2-((1-methyl-1H-pyrazol-4-yl)amino)pyrimidin-4-yl)amino)phenyl)acrylamide]	0.585	5.98	0.843	0.967
C=CC(=O)Nc1ccc(F)c(Nc2nc(Nc3cnn(C)c3)ncc2-c2ccc(OC)c(C(F)(F)F)c2)c1 [Compound 22, N-(4-fluoro-3-((5-(4-methoxy-3-(trifluoromethyl)phenyl)-2-((1-methyl-1H-pyrazol-4-yl)amino)pyrimidin-4-yl)amino)phenyl)acrylamide]	> 10	0.89	0.329	0.428
[2H]C([2H])=CC(=O)Nc1ccc(F)c(Nc2nc(Nc3cnn(C)c3)ncc2-c2ccc(Br)c(F)c2)c1 [Compound 102, N-(3-((5-(4-bromo-3-fluorophenyl)-2-((1-methyl-1H-pyrazol-4-yl)amino)pyrimidin-4-yl)amino)-4-fluorophenyl)acrylamide-3,3-d2]	0.069	0.117	0.035	0.03
C=CC(=O)Nc1ccc(F)c(Nc2nc(Nc3cnn(C4CCOC4)c3)ncc2-c2ccc(Br)c(F)c2)c1 (stereo not drawn) [Compound 93, N-(3-((5-(4-bromo-3-fluorophenyl)-2-((1-(tetrahydrofuran-3-yl)-1H-pyrazol-4-yl)amino)pyrimidin-4-yl)amino)-4-fluorophenyl)acrylamide]	0.033	0.173	0.035	0.046
C=CC(=O)Nc1cccc(Nc2nc(Nc3cnn(C)c3)ncc2-c2cc(F)c(C(F)(F)F)c(F)c2)c1 [Compound 153, N-(3-((5-(3,5-difluoro-4-(trifluoromethyl)phenyl)-2-((1-methyl-1H-pyrazol-4-yl)amino)pyrimidin-4-yl)amino)phenyl)acrylamide]	1.08	0.098	0.013	0.034
Cn1cc(Nc2ncc(-c3ccc(Br)c(F)c3)c(Nc3cc(NC(=O)/C=C/CF)ccc3F)n2)cn1 [Compound 175, (E)-N-(3-((5-(4-bromo-3-fluorophenyl)-2-((1-methyl-1H-pyrazol-4-yl)amino)pyrimidin-4-yl)amino)-4-fluorophenyl)-4-fluorobut-2-enamide]	0.347	1.62	0.136	0.224
C=CC(=O)Nc1ccc(F)c(Nc2nc(Nc3cnn(C)c3)ncc2-c2ccc(N3CCCCCC3)c(F)c2)c1 [Compound 85, N-(3-((5-(4-(azepan-1-yl)-3-fluorophenyl)-2-((1-methyl-1H-pyrazol-4-yl)amino)pyrimidin-4-yl)amino)-4-fluorophenyl)acrylamide]	2.82	0.884	0.314	0.268
C=CC(=O)Nc1ccc(F)c(Nc2nc(Nc3cnn(C)c3)ncc2-c2cc(F)c(Br)c(F)c2)c1 [Compound 91, N-(3-((5-(4-bromo-3,5-difluorophenyl)-2-((1-methyl-1H-pyrazol-4-yl)amino)pyrimidin-4-yl)amino)-4-fluorophenyl)acrylamide]	0.011	0.059	0.015	0.031
C=CC(=O)Nc1cc(Br)cc(Nc2nc(Nc3cnn(C)c3)ncc2-c2cc(F)cc(Cl)c2)c1 [Compound 173, N-(3-bromo-5-((5-(3-chloro-5-fluorophenyl)-2-((1-methyl-1H-pyrazol-4-yl)amino)pyrimidin-4-yl)amino)phenyl)acrylamide]	0.776	1.52	0.101	0.311
C=CC(=O)Nc1ccc(F)c(Nc2nc(Nc3cnn(C)c3)ncc2-c2cc(F)c(F)c(C(F)F)c2)c1 [Compound 141, N-(3-((5-(3-(difluoromethyl)-4,5-difluorophenyl)-2-((1-methyl-1H-pyrazol-4-yl)amino)pyrimidin-4-yl)amino)-4-fluorophenyl)acrylamide]	0.013	0.167	0.016	0.025
